Source: patent US20220142165A1 (priority 2019, published 2022)

Key:
[1] = test system: tomato late blight pathogen (Phylophihora infeslans); test: whole plant or invertebrate; type: in vivo; settings: Phytophthora infestans, 96 h, read-out: Control value
[2] = test system: grape downy mildew pathogen (Plasmopara viticola); test: Grape downy mildew control test (Test Example 2); type: in vivo; settings: Plasmopara viticola, foliar, 168 h; 100 ppm by mass, sprayed on grape leaf disc (variety Chardonnay) before inoculation; blotch area ratio seven days after inoculation, 20° C.
Protocol: 5 parts by mass of the compound according to the present invention, 93.5 parts by mass of dimethylformamide, and 1.5 parts by mass of polyoxyethylene alkylaryl ether were mixed and dissolved to prepare an emulsion (I) containing 5% by mass of an active ingredient.
The control value was calculated according to the following formula.
Control value (%)=100−{blotch area ratio in treated area/blotch area ratio in untreated area}×100
Water was added to the emulsion (I) such that the concentration of the heterocyclic compound became 100 ppm by mass, and then the heterocyclic compound was dissolved therein to obtain a pharmaceutical solution. Then, the pharmaceutical solution was sprayed on a leaf disc of grape (variety “Chardonnay”) placed on agar in a 6-well plate. After air-drying, the leaf disc on which the pharmaceutical solution was sprayed was inoculated with zoosporangia of grape downy mildew pathogen (Plasmopara viticola) in a suspension by spraying the suspension thereon (treated area). As a control, a leaf disc on which no pharmaceutical solution was sprayed was inoculated in the same way as mentioned above (untreated area). The resultant leaf discs were left in a moist chamber at 20° C. Seven days after inoculation, the grape leaf discs were visually observed to measure the blotch area ratio to calculate the control value.

Compound	pest or weed control at 125 ppm [1] [%]	pest or weed control at 100 ppm [2] [%]	melting point [°C]
CO/N=C/c1ccnc(C(Oc2ccc3nc(C)sc3c2)c2nnco2)c1 (stereo not drawn) [b-21]	≥ 75	≥ 75	107 to 109
CO/N=C/c1cc(C(Oc2ccc3nnsc3c2)c2nnco2)ncc1F (stereo not drawn) [b-58]	≥ 75	≥ 75	134 to 135
Clc1ccc(C(Oc2ccc3nnsc3c2)c2nnco2)nc1 (stereo not drawn) [b-12]	≥ 75	≥ 75	133 to 134
CCc1cc(OC(c2cc(/C=N/OC)c(F)cn2)c2nnco2)cc2sc(C)nc12 (stereo not drawn) [b-46]	≥ 75	≥ 75	145 to 147
CO/N=C/c1cc(C(Oc2cc(Br)c3nc(C)sc3c2)c2nnco2)ncc1F (stereo not drawn) [b-42]	≥ 75	≥ 75	70 to 75
CO/N=C/c1cc(C(Oc2ccc3nc(C)sc3c2)c2nnco2)ncc1F (stereo not drawn) [b-27]	≥ 75	≥ 75	129 to 131
CO/N=C/c1cc(C(Oc2cc(F)c3ncsc3c2)c2nnco2)ncc1F (stereo not drawn) [b-45]	≥ 75	≥ 75	137 to 139
C=Cc1nc2ccc(OC(c3cc(/C=N/OC)c(F)cn3)c3nnco3)cc2s1 (stereo not drawn) [b-63]	≥ 75	≥ 75	88 to 89
CCO/N=C/c1ccnc(C(Oc2ccc3ncsc3c2)c2nnco2)c1 (stereo not drawn) [b-17]	≥ 75	≥ 75	113 to 114
CNc1nc2ccc(OC(c3cc(/C=N/OC)c(F)cn3)c3nnco3)cc2s1 (stereo not drawn) [b-74]	≥ 75	≥ 75	181 to 182
Fc1ccc(C(Oc2ccc3nnsc3c2)c2nnco2)nc1 (stereo not drawn) [b-10]	≥ 75	≥ 75	141 to 142
C#CCO/N=C/c1ccnc(C(Oc2ccc3nc(C)sc3c2)c2nnco2)c1 (stereo not drawn) [b-26]	≥ 75	≥ 75	118 to 121
CO/N=C/c1cc(C(Oc2cc(OC)c3ncsc3c2)c2nnco2)ncc1F (stereo not drawn) [b-84]	≥ 75	≥ 75	103 to 104
CO/N=C/c1ccnc(C(Oc2cc(C)c3ncsc3c2)c2nnco2)c1 (stereo not drawn) [b-23]	≥ 75	≥ 75	146 to 148
CO/N=C/c1cc(C(Oc2ccc3ncsc3c2)c2nnco2)ncc1C#N (stereo not drawn) [b-40]	≥ 75	≥ 75	129 to 131
CCCc1cc(OC(c2cc(/C=N/OC)ccn2)c2nnco2)cc2scnc12 (stereo not drawn) [b-24]	≥ 75	≥ 75	80 to 82
CO/N=C/c1ccnc(C(Oc2cc(F)c3ncsc3c2)c2nnco2)c1 (stereo not drawn) [b-22]	≥ 75	≥ 75	113 to 148
C=Cc1cc(OC(c2cc(/C=N/OC)c(F)cn2)c2nnco2)cc2sc(C)nc12 (stereo not drawn) [b-48]	≥ 75	≥ 75	116 to 119
CO/N=C/c1cc(C(Oc2cc(C)c3nc(C)sc3c2)c2nnco2)ncc1F (stereo not drawn) [b-47]	≥ 75	≥ 75	151 to 154
CCc1cc(OC(c2cc(/C=N/OC)c(F)cn2)c2nnco2)cc2scnc12 (stereo not drawn) [b-44]	≥ 75	≥ 75	114 to 117
Fc1cnc(C(Oc2ccc3ncsc3c2)c2nnco2)cc1/C=N/OCC1CC1 (stereo not drawn) [b-50]	≥ 75	≥ 75	129 to 131
CO/N=C/c1cc(C(Oc2cc3scnc3cc2F)c2nnco2)ncc1F (stereo not drawn) [b-57]	≥ 75	≥ 75	150 to 151
CCc1cc(OC(c2cc(/C=N/OCCOC)c(F)cn2)c2nnco2)cc2sc(C)nc12 (stereo not drawn) [b-87]	≥ 75	≥ 75	138 to 139
CO/N=C/c1cc(C(Oc2ccc3nc(CF)sc3c2)c2nnco2)ncc1F (stereo not drawn) [b-66]	≥ 75	≥ 75	133 to 134
CO/N=C/c1cc(C(Oc2cc(Cl)c3ncsc3c2)c2nnco2)ncc1F (stereo not drawn) [b-55]	≥ 75	≥ 75	153 to 154
